According to PubChem BioAssay AID328 (DTP/NCI, 2004):
Where “and” joins values, the source holds several entries; their conditions need not be identical. Equal entries are not always repeated. Inconclusive results and toxic doses are left out. Residues, ends and D or L forms follow the SMILES beside them.

System: BDF1 mice, P388 leukemia ip, median survival T/C
Experiment: NCI In Vivo Anticancer Drug Screen. Data for tumor model P388 Leukemia (intraperitoneal) in B6D2F1 (BDF1) mice
Conditions: endpoint: median survival time, higher = longer survival
Method in brief: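 Compound-treated tumour-bearing mice were compared with vehicle-treated controls. Survival was recorded, and the value is the treated-group measurement divided by the control-group measurement (T/C).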

[1] = dose: 100.0 mg/kg/injection, schedule: Q01DX009 (ip), vehicle: Klucel (hydroxypropylcellulose) (HPC)
[2] = dose: 100.0 mg/kg/injection, schedule: Q04DX003 (ip), vehicle: Klucel (hydroxypropylcellulose) (HPC)
[3] = dose: 200.0 mg/kg/injection, schedule: Q01DX009 (ip), vehicle: Klucel (hydroxypropylcellulose) (HPC)
[4] = dose: 200.0 mg/kg/injection, schedule: Q04DX003 (ip), vehicle: Klucel (hydroxypropylcellulose) (HPC)
[5] = dose: 400.0 mg/kg/injection, schedule: Q04DX003 (ip), vehicle: Klucel (hydroxypropylcellulose) (HPC)
[6] = dose: 50.0 mg/kg/injection, schedule: Q01DX009 (ip), vehicle: saline with Tween-80
[7] = dose: 50.0 mg/kg/injection, schedule: Q04DX003 (ip), vehicle: saline with Tween-80
[8] = dose: 100.0 mg/kg/injection, schedule: Q01DX009 (ip), vehicle: saline with Tween-80
[9] = dose: 100.0 mg/kg/injection, schedule: Q04DX003 (ip), vehicle: saline with Tween-80
[10] = dose: 200.0 mg/kg/injection, schedule: Q01DX009 (ip), vehicle: saline with Tween-80
[11] = dose: 200.0 mg/kg/injection, schedule: Q04DX003 (ip), vehicle: saline with Tween-80
[12] = dose: 400.0 mg/kg/injection, schedule: Q04DX003 (ip), vehicle: saline with Tween-80

O=C(Cc1ccccc1)OCC#CC#CCOC(=O)Cc1ccccc1
T/C [1]: 100 % of control
T/C [2]: 90 % of control
T/C [3]: 104 % of control
T/C [4]: 104 % of control
T/C (dose: 400.0 mg/kg/injection, schedule: Q01DX009 (ip), vehicle: Klucel (hydroxypropylcellulose) (HPC)): 100 % of control
T/C [5]: 109 % of control

O=C(CO)c1ccc([N+](=O)[O-])cc1
T/C [6]: 106 % of control

CC(=O)CC(=O)NCCCc1ccccc1
T/C (dose: 100.0 mg/kg/injection, schedule: Q04DX003 (sc), vehicle: olive oil, sesame oil, peanut oil): 109 % of control
T/C (dose: 200.0 mg/kg/injection, schedule: Q04DX003 (sc), vehicle: olive oil, sesame oil, peanut oil): 100 % of control
T/C (dose: 400.0 mg/kg/injection, schedule: Q04DX003 (sc), vehicle: olive oil, sesame oil, peanut oil): 100 % of control

O=N[O-].[Co].[N-]=C=S.[NH2-].[NH2-].[NH2-].[NH2-]
T/C (dose: 6.25 mg/kg/injection, schedule: Q01DX009 (ip), vehicle: saline): 95 % of control
T/C (dose: 12.5 mg/kg/injection, schedule: Q01DX009 (ip), vehicle: saline): 93 % of control
T/C (dose: 25.0 mg/kg/injection, schedule: Q01DX009 (ip), vehicle: saline): 112 % of control
T/C [7]: 120 % of control

COc1ccccc1Cl
T/C [8]: 103 % of control
T/C [9]: 116 % of control
T/C [10]: 103 % of control
T/C [11]: 104 % of control
T/C (dose: 400.0 mg/kg/injection, schedule: Q01DX009 (ip), vehicle: saline with Tween-80): 96 % of control
T/C [12]: 108 % of control

S=c1[nH]nc(Nc2ccccc2Cl)s1
T/C [6]: 100 % of control
T/C [8]: 90 % of control
T/C [10]: 100 % of control

c1ccc(CNc2ncnc3[nH]ncc23)cc1
T/C (dose: 8.0 mg/kg/injection, schedule: Q01DX010 (ip), vehicle: saline): 86 % of control and 115 % of control
T/C (dose: 16.0 mg/kg/injection, schedule: Q01DX010 (ip), vehicle: saline): 86 % of control and 100 % of control
T/C (dose: 32.0 mg/kg/injection, schedule: Q01DX010 (ip), vehicle: saline): 95 % of control and 100 % of control
T/C (dose: 64.0 mg/kg/injection, schedule: Q01DX010 (ip), vehicle: saline): 100 % of control

Cc1cc2c(c(O)c1-c1c(C)cc(O)c3c1C(=O)C=CC3=O)C(=O)C=CC2=O
T/C (dose: 1.25 mg/kg/injection, schedule: Q01DX009 (ip), vehicle: saline with Tween-80): 107 % of control
T/C (dose: 2.5 mg/kg/injection, schedule: Q01DX009 (ip), vehicle: saline with Tween-80): 114 % of control
T/C (dose: 5.0 mg/kg/injection, schedule: Q01DX009 (ip), vehicle: saline with Tween-80): 103 % of control

CCN(CC)CCOc1ccc(C2=C(c3ccccc3)CCc3cc(OC)ccc32)cc1
T/C (dose: 12.5 mg/kg/injection, schedule: Q01DX009 (ip), vehicle: saline with Tween-80): 90 % of control
T/C (dose: 25.0 mg/kg/injection, schedule: Q01DX009 (ip), vehicle: saline with Tween-80): 90 % of control
T/C [6]: 95 % of control and 118 % of control

NOCc1c(F)c(F)c(F)c(F)c1F
T/C (dose: 50.0 mg/kg/injection, schedule: Q01DX001 (ip), vehicle: saline): 113 % of control
T/C (dose: 100.0 mg/kg/injection, schedule: Q01DX001 (ip), vehicle: saline): 104 % of control
T/C (dose: 200.0 mg/kg/injection, schedule: Q01DX001 (ip), vehicle: saline): 95 % of control

Cc1c2oc3c(C)ccc(C(=O)NCCc4ccco4)c3nc-2c(C(=O)NCCc2ccco2)c(N)c1=O
T/C [9]: 102 % of control
T/C [11]: 99 % of control
T/C [12]: 96 % of control

CN(C)c1ccc(Sc2ccc3nc(N)nc(N)c3c2)cc1
T/C [6]: 112 % of control
T/C [8]: 103 % of control
T/C [10]: 174 % of control

NCCc1ccc(O)c(O)c1
T/C (dose: 37.5 mg/kg/injection, schedule: Q01DX009 (ip), vehicle: saline): 101 % of control and 120 % of control
T/C (dose: 75.0 mg/kg/injection, schedule: Q01DX009 (ip), vehicle: saline): 114 % of control
T/C (dose: 150.0 mg/kg/injection, schedule: Q01DX009 (ip), vehicle: saline): 111 % of control
T/C (dose: 300.0 mg/kg/injection, schedule: Q01DX009 (ip), vehicle: saline): 158 % of control

CC1=CC23C(=O)[C@@H](C=C(COC(=O)c4ccccc4)[C@@H](O)[C@]2(O)[C@H]1OC(=O)c1ccccc1)[C@H]1[C@@H](C[C@H]3C)C1(C)C
T/C (dose: 7.0 micrograms/kg/injection, schedule: Q01DX009 (ip), vehicle: saline with Tween-80): 197 % of control
T/C (dose: 8.0 micrograms/kg/injection, schedule: Q01DX009 (ip), vehicle: saline + alcohol): 110 % of control
T/C (dose: 11.0 micrograms/kg/injection, schedule: Q01DX009 (ip), vehicle: saline with Tween-80): 107 % of control
T/C (dose: 13.0 micrograms/kg/injection, schedule: Q01DX009 (ip), vehicle: saline + alcohol): 108 % of control
T/C (dose: 19.0 micrograms/kg/injection, schedule: Q01DX009 (ip), vehicle: saline with Tween-80): 113 % of control
T/C (dose: 21.0 micrograms/kg/injection, schedule: Q01DX009 (ip), vehicle: saline + alcohol): 110 % of control
T/C (dose: 31.0 micrograms/kg/injection, schedule: Q01DX009 (ip), vehicle: saline with Tween-80): 113 % of control
T/C (dose: 35.0 micrograms/kg/injection, schedule: Q01DX009 (ip), vehicle: saline + alcohol): 110 % of control
T/C (dose: 52.0 micrograms/kg/injection, schedule: Q01DX009 (ip), vehicle: saline with Tween-80): 124 % of control
T/C (dose: 59.0 micrograms/kg/injection, schedule: Q01DX009 (ip), vehicle: saline + alcohol): 107 % of control
T/C (dose: 86.0 micrograms/kg/injection, schedule: Q01DX009 (ip), vehicle: saline with Tween-80): 109 % of control
T/C (dose: 98.0 micrograms/kg/injection, schedule: Q01DX009 (ip), vehicle: saline + alcohol): 100 % of control
T/C (dose: 144.0 micrograms/kg/injection, schedule: Q01DX009 (ip), vehicle: saline with Tween-80): 113 % of control
T/C (dose: 240.0 micrograms/kg/injection, schedule: Q01DX009 (ip), vehicle: saline with Tween-80): 157 % of control

CCC12C=CCN3CCC4(c5cc(C(CN6CCCCC6)c6cn(C)c7ccccc67)c(OC)cc5N(C)C4C(O)(C(=O)OC)C1OC(C)=O)C32 (stereo unspecified)
T/C (dose: 4.0 mg/kg/injection, schedule: Q01DX009 (ip), vehicle: saline): 104 % of control
T/C (dose: 8.0 mg/kg/injection, schedule: Q01DX009 (ip), vehicle: saline): 98 % of control
T/C (dose: 16.0 mg/kg/injection, schedule: Q01DX009 (ip), vehicle: saline): 98 % of control
T/C (dose: 32.0 mg/kg/injection, schedule: Q01DX009 (ip), vehicle: saline): 93 % of control and 116 % of control

CC(C)C(NC(=O)C(NC(=O)C(CCCN=C(N)N)NC(=O)C(N)CCCCN)C(C)C)C(N)=O (stereo unspecified) (H-KRVV-NH2; configuration not given here)
T/C (dose: 12.5 mg/kg/injection, schedule: Q04DX003 (ip), vehicle: water): 101 % of control
T/C (dose: 25.0 mg/kg/injection, schedule: Q04DX003 (ip), vehicle: water): 97 % of control
T/C (dose: 50.0 mg/kg/injection, schedule: Q04DX003 (ip), vehicle: water): 107 % of control
T/C (dose: 100.0 mg/kg/injection, schedule: Q04DX003 (ip), vehicle: water): 92 % of control
T/C (dose: 200.0 mg/kg/injection, schedule: Q04DX003 (ip), vehicle: water): 93 % of control

c1ccc2c(SSc3cccc4ccccc34)cccc2c1
T/C (dose: 25.0 mg/kg/injection, schedule: Q04DX003 (ip), vehicle: saline with Tween-80): 108 % of control
T/C [7]: 108 % of control
T/C [9]: 112 % of control
T/C [11]: 103 % of control

COc1ccc(CCN2C(=O)CSC2=S)cc1OC
T/C (dose: 100.0 mg/kg/injection, schedule: Q01DX001 (ip), vehicle: Klucel (hydroxypropylcellulose) (HPC)): 90 % of control
T/C (dose: 200.0 mg/kg/injection, schedule: Q01DX001 (ip), vehicle: Klucel (hydroxypropylcellulose) (HPC)): 100 % of control
T/C (dose: 400.0 mg/kg/injection, schedule: Q01DX001 (ip), vehicle: Klucel (hydroxypropylcellulose) (HPC)): 90 % of control

BrC1C2CCC(CC2)C1Br (stereo unspecified)
T/C [1]: 100 % of control
T/C [2]: 95 % of control
T/C [3]: 104 % of control
T/C [4]: 95 % of control
T/C [5]: 91 % of control

Clc1c(CBr)c(Cl)c(CBr)c(Cl)c1CBr
T/C (dose: 12.5 mg/kg/injection, schedule: Q01DX009 (ip), vehicle: Klucel (hydroxypropylcellulose) (HPC)): 113 % of control
T/C (dose: 25.0 mg/kg/injection, schedule: Q01DX009 (ip), vehicle: Klucel (hydroxypropylcellulose) (HPC)): 122 % of control

CCCCCCCC(O)CCCC (stereo unspecified)
T/C [2]: 87 % of control
T/C [4]: 91 % of control
T/C [5]: 91 % of control
